{"source": "patent US20220354847A1", "about": "“THIAMINE THERAPY FOR FATTY LIVER ASSOCIATED DISEASES” (priority 2019, published 2022)", "key": {"hepatic steatosis": {"tested_on": "hepatic steatosis", "conditions": "literature (Biomedical Reports 2013; Journal of Hepatology 2016); cited from earlier work"}, "liver histology": {"tested_on": "liver histology", "conditions": "literature, cited from earlier work; for associated adverse effects: long-term treatment"}, "[1]": {"tested_on": "hepatic alterations caused by a high-fat diet", "conditions": "mice; literature; cited from earlier work"}, "[2]": {"tested_on": "circulating leukocytes gene expression", "conditions": "FIG. 14A"}, "[3]": {"tested_on": "hepatic steatosis in lambs grown on the HC diet"}, "[4]": {"tested_on": "lambs grown on the HC diet", "conditions": "within one week of treatment; saline-treated HC group 77.2 mg/dL"}}, "data": [{"compound": "N[C@@H](CC(=O)N1CCn2c(nnc2C(F)(F)F)C1)Cc1cc(F)c(F)cc1F", "note": "[Sitagliptin]", "values": [{"measurement": "effect on hepatic steatosis / liver fat", "setting": "hepatic steatosis", "result": "ineffective"}]}, {"compound": "CN(C)C(=N)N=C(N)N", "note": "[metformin]", "values": [{"measurement": "effect on hepatic steatosis / liver fat", "setting": "hepatic steatosis", "result": "no effect"}]}, {"compound": "CCc1ccc(CCOc2ccc(CC3SC(=O)NC3=O)cc2)nc1", "note": "(stereo not drawn) [pioglitazone]", "values": [{"measurement": "associated adverse effects", "setting": "liver histology", "result": "weight gain"}]}, {"compound": "O=C1CCC(N2C(=O)c3ccccc3C2=O)C(=O)N1", "note": "(stereo not drawn) [thalidomide]", "values": [{"measurement": "hepatic alterations caused by a high-fat diet", "setting": "[1]", "result": "improvements"}]}, {"compound": "Cc1ncc(C[n+]2csc(CCO)c2C)c(N)n1", "note": "[thiamine]", "values": [{"measurement": "liver expression of APOB", "setting": "liver gene expression; FIG. 13C", "result": "No effects"}, {"measurement": "liver expression of the energy-sensing axis and of the transporters of NEFA (CD36, SLC27A6, SLC27A5)", "setting": "liver gene expression; FIG. 13D", "result": "No effect"}, {"measurement": "liver gene expression of NFKB1, IL1B, CCL2 and IL8", "setting": "liver gene expression; FIG. 14B", "result": "No significant alterations"}, {"measurement": "liver expression of catalase", "setting": "liver gene expression; FIG. 14C", "result": "did not affect"}, {"measurement": "liver expression of TNF", "setting": "liver gene expression; P=0.005, FIG. 14B", "result": "lowered"}, {"measurement": "liver expression of superoxide dismutase 2 (SOD2)", "setting": "liver gene expression; P=0.02, FIG. 14C", "result": "increase"}, {"measurement": "liver expression of genes coding for AMPK (PRKAA2), PGC-1α (PPARGC1A) and PPAR-α (PPARA)", "setting": "liver gene expression; THC vs HC", "result": "did not affect"}, {"measurement": "Perilipin 2 transcripts in liver", "setting": "liver gene expression; THC vs HC, P=0.002, FIG. 13C", "result": "lowered Perilipin 2 transcripts substantially"}, {"measurement": "liver expression of SIRT1", "setting": "liver gene expression; between the treatments, FIG. 13A", "result": "not different"}, {"measurement": "abundance of MTTP transcripts in liver", "setting": "liver gene expression; compared with untreated HC group, P=0.001", "result": "increased"}, {"measurement": "liver expression of glutathione peroxidase 1 (GPX1)", "setting": "liver gene expression; in vivo", "result": "no detected treatment effects"}, {"measurement": "inflammatory state increased by the HC diet (proinflammatory gene expression)", "setting": "liver gene expression; leukocyte and liver, FIG. 14 legend", "result": "partially alleviated"}, {"measurement": "leukocyte expression of IL1B, TNF and IFNG", "setting": "[2]", "result": "No treatment effects"}, {"measurement": "leukocyte expression of CXCL8", "setting": "[2]; thiamine-treated animals, P=0.05", "result": "lower expression"}, {"measurement": "hepatocellular steatosis (macro-vesicular or micro-vesicular, histology score 0 to 3)", "setting": "[3]; HC vs LC and THC, FIG. 11B, 11D", "result": "significantly increased in the HC compared to both the LC and THC groups"}, {"measurement": "hepatic steatosis (liver fat content, percentage of wet liver weight)", "setting": "[3]; THC group, HC diet + thiamine 300 mg/animal s.c. 3 then 5 times a week for the last 85 of 135 days, HC=8.1%, LC 3.8%, P<0.0001", "result": 4.8, "unit": "%"}, {"measurement": "hepatic index (liver weight/BW)", "setting": "[3]; THC vs HC, FIG. 11C", "result": "no significant effect"}, {"measurement": "blood glucose levels", "setting": "[4]", "result": 71.7, "unit": "mg/dL"}]}, {"compound": "vitamin E", "values": [{"measurement": "effect on liver histology", "setting": "liver histology; biopsy-proven NASH patients", "result": "improve liver histology"}, {"measurement": "associated adverse effects", "setting": "liver histology", "result": "modest increase in the risk for prostate cancer"}]}]}
